Experimental data reported in the supplement of paper PMC10307832.

What was measured:
Experiment in all cases: relative viability (nuclei count vs DMSO), 5 days (fraction); higher = more cells survive
[1] = test system: 201T
In short: (§1)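 Lung cancer cell lines were pin-tool dosed in 1536-well plates on the day after seeding, with either a lone drug or a fixed anchor-drug dose plus five library-drug doses (not always all listed) in √10 steps. Nuclei were counted on 4× images after 5 days. Relative viability is the ratio of treated-well to vehicle-well nuclei counts, with each value a median of duplicate plates.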

[2] = test system: ABC-1
In short: as §1

[3] = test system: BEN
In short: as §1

[4] = test system: CAL-12T
In short: as §1

[5] = test system: COR-L 105
In short: as §1

[6] = test system: EKVX
In short: as §1

[7] = test system: HARA
In short: as §1

[8] = test system: HCC-366
In short: as §1

[9] = test system: LK-2
In short: as §1

[10] = test system: LOU-NH91
In short: as §1

[11] = test system: NCI-H1437
In short: as §1

[12] = test system: NCI-H1650
In short: as §1

[13] = test system: NCI-H1666
In short: as §1

[14] = test system: NCI-H2009
In short: as §1

[15] = test system: NCI-H2170
In short: as §1

[16] = test system: NCI-H3122
In short: as §1

[17] = test system: NCI-H441
In short: as §1

[18] = test system: NCI-H460
In short: as §1

[19] = test system: NCI-H661
In short: as §1

[20] = test system: NCI-H727
In short: as §1

[21] = test system: PC-14
In short: as §1

[22] = test system: SW 900
In short: as §1

CCN(CC)CCCCNc1ncc2cc(-c3cc(OC)cc(OC)c3)c(NC(=O)NC(C)(C)C)nc2n1 + COc1cc2c(Oc3ccc(NC(=O)C4(C(=O)Nc5ccc(F)cc5)CC4)cc3F)ccnc2cc1OCCCN1CCOCC1 [Foretinib] (partner 0.25 µM)
relative viability ([1]; first compound 0.03162 µM): 1.06
relative viability ([1]; first compound 0.1 µM): 1.2
relative viability ([1]; first compound 0.3162 µM): 1.05
relative viability ([1]; first compound 1 µM): 1.03
relative viability ([2]; first compound 0.01 µM): 1.22
relative viability ([2]; first compound 0.03162 µM): 0.951
relative viability ([2]; first compound 0.1 µM): 1.3
relative viability ([2]; first compound 0.3162 µM): 1.14
relative viability ([2]; first compound 1 µM): 1.16
relative viability ([3]; first compound 0.01 µM): 0.597
relative viability ([3]; first compound 0.03162 µM): 0.544
relative viability ([3]; first compound 0.1 µM): 0.796
relative viability ([3]; first compound 0.3162 µM): 0.618
relative viability ([3]; first compound 1 µM): 0.382
relative viability ([4]; first compound 0.01 µM): 1.13
relative viability ([4]; first compound 0.03162 µM): 1.2
relative viability ([4]; first compound 0.1 µM): 1.35
relative viability ([4]; first compound 0.3162 µM): 1.23
relative viability ([4]; first compound 1 µM): 1.19
relative viability ([5]; first compound 0.01 µM): 1.27
relative viability ([5]; first compound 0.03162 µM): 0.994
relative viability ([5]; first compound 0.1 µM): 1.23
relative viability ([5]; first compound 0.3162 µM): 0.909
relative viability ([5]; first compound 1 µM): 1.15
relative viability ([6]; first compound 0.01 µM): 0.589
relative viability ([6]; first compound 0.03162 µM): 0.471
relative viability ([6]; first compound 0.1 µM): 0.781
relative viability ([6]; first compound 0.3162 µM): 0.949
relative viability ([6]; first compound 1 µM): 0.758
relative viability ([7]; first compound 0.01 µM): 0.996
relative viability ([7]; first compound 0.03162 µM): 0.848
relative viability ([7]; first compound 0.1 µM): 0.998
relative viability ([7]; first compound 0.3162 µM): 0.985
relative viability ([7]; first compound 1 µM): 0.493
relative viability ([8]; first compound 0.01 µM): 0.951
relative viability ([8]; first compound 0.03162 µM): 0.941
relative viability ([8]; first compound 0.1 µM): 1.05
relative viability ([8]; first compound 0.3162 µM): 0.981
relative viability ([8]; first compound 1 µM): 0.999
relative viability ([9]; first compound 0.01 µM): 1.06
relative viability ([9]; first compound 0.03162 µM): 1.13
relative viability ([9]; first compound 0.1 µM): 1.66
relative viability ([9]; first compound 0.3162 µM): 0.962
relative viability ([9]; first compound 1 µM): 0.663
relative viability ([10]; first compound 0.01 µM): 0.927
relative viability ([10]; first compound 0.03162 µM): 0.916
relative viability ([10]; first compound 0.1 µM): 0.959
relative viability ([10]; first compound 0.3162 µM): 0.977
relative viability ([10]; first compound 1 µM): 0.912
relative viability ([11]; first compound 0.01 µM): 1.47
relative viability ([11]; first compound 0.03162 µM): 1.21
relative viability ([11]; first compound 0.1 µM): 1.3
relative viability ([11]; first compound 0.3162 µM): 1.3
relative viability ([11]; first compound 1 µM): 1.16
relative viability ([12]; first compound 0.01 µM): 1.26
relative viability ([12]; first compound 0.03162 µM): 1.11
relative viability ([12]; first compound 0.1 µM): 1.1
relative viability ([12]; first compound 0.3162 µM): 1.2
relative viability ([12]; first compound 1 µM): 1.12
relative viability ([13]; first compound 0.01 µM): 0.936
relative viability ([13]; first compound 0.03162 µM): 0.979
relative viability ([13]; first compound 0.1 µM): 0.977
relative viability ([13]; first compound 0.3162 µM): 0.892
relative viability ([13]; first compound 1 µM): 0.919
relative viability ([14]; first compound 0.01 µM): 1.33
relative viability ([14]; first compound 0.03162 µM): 1.25
relative viability ([14]; first compound 0.1 µM): 1.22
relative viability ([14]; first compound 0.3162 µM): 1.29
relative viability ([14]; first compound 1 µM): 1.18
relative viability ([15]; first compound 0.01 µM): 0.929
relative viability ([15]; first compound 0.03162 µM): 1.05
relative viability ([15]; first compound 0.1 µM): 0.961
relative viability ([15]; first compound 0.3162 µM): 1.08
relative viability ([15]; first compound 1 µM): 0.999
relative viability ([16]; first compound 0.01 µM): 0.967
relative viability ([16]; first compound 0.03162 µM): 0.927
relative viability ([16]; first compound 0.1 µM): 1.08
relative viability ([16]; first compound 0.3162 µM): 1.05
relative viability ([16]; first compound 1 µM): 1.02
relative viability ([17]; first compound 0.01 µM): 1.02
relative viability ([17]; first compound 0.03162 µM): 1.19
relative viability ([17]; first compound 0.1 µM): 1.04
relative viability ([17]; first compound 0.3162 µM): 1.04
relative viability ([17]; first compound 1 µM): 0.918
relative viability ([18]; first compound 0.01 µM): 0.972
relative viability ([18]; first compound 0.03162 µM): 1.13
relative viability ([18]; first compound 0.1 µM): 1.03
relative viability ([18]; first compound 0.3162 µM): 1.04
relative viability ([18]; first compound 1 µM): 1.18
relative viability ([19]; first compound 0.01 µM): 1.07
relative viability ([19]; first compound 0.03162 µM): 1.04
relative viability ([19]; first compound 0.1 µM): 1.03
relative viability ([19]; first compound 0.3162 µM): 1.07
relative viability ([19]; first compound 1 µM): 1.02
relative viability ([20]; first compound 0.01 µM): 0.956
relative viability ([20]; first compound 0.03162 µM): 0.834
relative viability ([20]; first compound 0.1 µM): 0.919
relative viability ([20]; first compound 0.3162 µM): 1.05
relative viability ([20]; first compound 1 µM): 0.844
relative viability ([21]; first compound 0.01 µM): 0.976
relative viability ([21]; first compound 0.03162 µM): 0.976
relative viability ([21]; first compound 0.1 µM): 1.08
relative viability ([21]; first compound 0.3162 µM): 1.07
relative viability ([21]; first compound 1 µM): 0.885
relative viability ([22]; first compound 0.01 µM): 0.891
relative viability ([22]; first compound 0.03162 µM): 0.733
relative viability ([22]; first compound 0.3162 µM): 0.745
relative viability ([22]; first compound 1 µM): 0.557
